Measured values as given in PubChem BioAssay AID1919004 (Molecular Pharmacology Branch, DTP, NCI, 2023).
Each block holds one compound with its values, some of them ahead of it.

Tested on: 883617-216-R-J1-PDC complex spheroids, growth, % test/control
Assay: Anticancer human tumor 883617-216-R-J1-PDC patient-derived bladder carcinoma cell line growth inhibition [AhR]
Settings: for IC50: curve of first compound; for viability, T/C: stronger effect = lower value
In short: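 Agents were dosed in half-log steps down from roughly clinical Cmax, or from 10 microM where Cmax was unknown, alone and with AhR antagonists. Read-out: percent test/control growth of tumor spheroids containing HUVEC and MSC stromal cells.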

[1] = second compound 0.1 µM, first compound 0.0316 µM
[2] = second compound 0.1 µM, first compound 0.1 µM
[3] = second compound 0.1 µM, first compound 0.316 µM
[4] = second compound 0.1 µM, first compound 1 µM
[5] = second compound 0.1 µM, first compound 3.16 µM
[6] = second compound 0.1 µM, first compound 10 µM
[7] = second compound 0.316 µM, first compound 0.0316 µM
[8] = second compound 0.316 µM, first compound 0.1 µM
[9] = second compound 0.316 µM, first compound 0.316 µM
[10] = second compound 0.316 µM, first compound 1 µM
[11] = second compound 0.316 µM, first compound 3.16 µM
[12] = second compound 0.316 µM, first compound 10 µM
[13] = second compound 1 µM, first compound 0.0316 µM
[14] = second compound 1 µM, first compound 0.1 µM
[15] = second compound 1 µM, first compound 0.316 µM
[16] = second compound 1 µM, first compound 1 µM
[17] = second compound 1 µM, first compound 3.16 µM
[18] = second compound 1 µM, first compound 10 µM
[19] = second compound 3.16 µM, first compound 0.0316 µM
[20] = second compound 3.16 µM, first compound 0.1 µM
[21] = second compound 3.16 µM, first compound 0.316 µM
[22] = second compound 3.16 µM, first compound 1 µM
[23] = second compound 3.16 µM, first compound 3.16 µM
[24] = second compound 3.16 µM, first compound 10 µM
[25] = second compound 10 µM, first compound 0.0316 µM
[26] = second compound 10 µM, first compound 0.1 µM
[27] = second compound 10 µM, first compound 0.316 µM
[28] = second compound 10 µM, first compound 1 µM
[29] = second compound 10 µM, first compound 3.16 µM
[30] = second compound 10 µM, first compound 10 µM
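Note: exposure lasted 7 days after dosing on day 3 of spheroid growth.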

SMILES: Nc1ccn(C2OC(CO)C(O)C2(F)F)c(=O)n1 (stereo not given) + CC(CO)NC(=O)c1cc(-c2ccc(Cl)cc2)nn(-c2cnn(C)c2)c1=O
IC50 (second compound 0.1 µM): > 10 µM
IC50 (second compound 0.316 µM): > 10 µM
IC50 (second compound 1 µM): > 10 µM
IC50 (second compound 3.16 µM): > 10 µM
IC50 (second compound 10 µM): > 10 µM
viability, T/C [1]: 82.9%
viability, T/C [2]: 91.6%
viability, T/C [3]: 95.4%
viability, T/C [4]: 88.3%
viability, T/C [5]: 58.7%
viability, T/C [6]: 85.3%
viability, T/C [7]: 82.2%
viability, T/C [8]: 99%
viability, T/C [9]: 97.8%
viability, T/C [10]: 84.8%
viability, T/C [11]: 85.8%
viability, T/C [12]: 86.3%
viability, T/C [13]: 96.8%
viability, T/C [14]: 76.4%
viability, T/C [15]: 113%
viability, T/C [16]: 77.7%
viability, T/C [17]: 75.7%
viability, T/C [18]: 72.1%
viability, T/C [19]: 81%
viability, T/C [20]: 91.8%
viability, T/C [21]: 108%
viability, T/C [22]: 52.7%
viability, T/C [23]: 63.4%
viability, T/C [24]: 63.5%
viability, T/C [25]: 63.2%
viability, T/C [26]: 124%
viability, T/C [27]: 87%
viability, T/C [28]: 72.7%
viability, T/C [29]: 78.2%
viability, T/C [30]: 76.6%

SMILES: Cn1ncnc1C1c2n[nH]c(=O)c3cc(F)cc(c23)NC1c1ccc(F)cc1 (stereo not given) + Cc1cncc(-c2nc(NCCc3c[nH]c4ccccc34)c3ncn(C(C)C)c3n2)c1
IC50 (second compound 0.1 µM): > 0.1 µM
IC50 (second compound 0.316 µM): > 0.1 µM
IC50 (second compound 1 µM): > 0.1 µM
IC50 (second compound 3.16 µM): > 0.1 µM
IC50 (second compound 10 µM): > 0.1 µM
viability, T/C (second compound 0.1 µM, first compound 0.000316 µM): 97.3%
viability, T/C (second compound 0.1 µM, first compound 0.001 µM): 97.5%
viability, T/C (second compound 0.1 µM, first compound 0.00316 µM): 82.8%
viability, T/C (second compound 0.1 µM, first compound 0.01 µM): 80.6%
viability, T/C [1]: 78%
viability, T/C [2]: 75.2%
viability, T/C (second compound 0.316 µM, first compound 0.000316 µM): 90.7%
viability, T/C (second compound 0.316 µM, first compound 0.001 µM): 97.4%
viability, T/C (second compound 0.316 µM, first compound 0.00316 µM): 90.1%
viability, T/C (second compound 0.316 µM, first compound 0.01 µM): 86.5%
viability, T/C [7]: 90.1%
viability, T/C [8]: 80.9%
viability, T/C (second compound 1 µM, first compound 0.000316 µM): 100%
viability, T/C (second compound 1 µM, first compound 0.001 µM): 101%
viability, T/C (second compound 1 µM, first compound 0.00316 µM): 97.2%
viability, T/C (second compound 1 µM, first compound 0.01 µM): 87.5%
viability, T/C [13]: 82.7%
viability, T/C [14]: 88.7%
viability, T/C (second compound 3.16 µM, first compound 0.000316 µM): 106%
viability, T/C (second compound 3.16 µM, first compound 0.001 µM): 106%
viability, T/C (second compound 3.16 µM, first compound 0.00316 µM): 102%
viability, T/C (second compound 3.16 µM, first compound 0.01 µM): 103%
viability, T/C [19]: 98.2%
viability, T/C [20]: 95.1%
viability, T/C (second compound 10 µM, first compound 0.000316 µM): 51%
viability, T/C (second compound 10 µM, first compound 0.001 µM): 56.3%
viability, T/C (second compound 10 µM, first compound 0.00316 µM): 56.5%
viability, T/C (second compound 10 µM, first compound 0.01 µM): 61.2%
viability, T/C [25]: 56.3%
viability, T/C [26]: 62.6%

SMILES: CC(C)c1c(-c2ccccc2)nc2c(C#N)c[nH]n2c1=O + Cc1cncc(-c2nc(NCCc3c[nH]c4ccccc34)c3ncn(C(C)C)c3n2)c1
IC50 (second compound 0.1 µM): > 10 µM
IC50 (second compound 0.316 µM): > 10 µM
IC50 (second compound 1 µM): > 10 µM
IC50 (second compound 3.16 µM): > 10 µM
IC50 (second compound 10 µM): 0.0681 µM
viability, T/C [1]: 98.7%
viability, T/C [2]: 93.8%
viability, T/C [3]: 99.3%
viability, T/C [4]: 99.7%
viability, T/C [5]: 92.6%
viability, T/C [6]: 91.7%
viability, T/C [7]: 107%
viability, T/C [8]: 91.8%
viability, T/C [9]: 93%
viability, T/C [10]: 97.6%
viability, T/C [11]: 103%
viability, T/C [12]: 94%
viability, T/C [13]: 96.6%
viability, T/C [14]: 114%
viability, T/C [15]: 107%
viability, T/C [16]: 104%
viability, T/C [17]: 102%
viability, T/C [18]: 111%
viability, T/C [19]: 105%
viability, T/C [20]: 109%
viability, T/C [21]: 115%
viability, T/C [22]: 105%
viability, T/C [23]: 111%
viability, T/C [24]: 121%
viability, T/C [25]: 53.4%
viability, T/C [26]: 48.5%
viability, T/C [27]: 48.4%
viability, T/C [28]: 41.7%
viability, T/C [29]: 43.5%
viability, T/C [30]: 55.4%

Further lines, with some results ahead:

IC50 (second compound 0.1 µM): 0.443 µM
IC50 (second compound 0.316 µM): 0.442 µM
IC50 (second compound 1 µM): 0.535 µM
IC50 (second compound 3.16 µM): 0.274 µM
IC50 (second compound 10 µM): 0.268 µM
SMILES: O=C(C=Cn1cnc(-c2cc(C(F)(F)F)cc(C(F)(F)F)c2)n1)NNc1cnccn1 + Cc1ccccc1N=Nc1ccc(NC(=O)c2ccnn2C)c(C)c1
viability, T/C (second compound 0.1 µM, first compound 0.00949 µM): 76.4%
viability, T/C (second compound 0.1 µM, first compound 0.03 µM): 79.8%
viability, T/C (second compound 0.1 µM, first compound 0.0949 µM): 61.7%
viability, T/C (second compound 0.1 µM, first compound 0.3 µM): 54.5%
viability, T/C (second compound 0.1 µM, first compound 0.949 µM): 43.7%
viability, T/C (second compound 0.1 µM, first compound 3 µM): 34.4%
viability, T/C (second compound 0.316 µM, first compound 0.00949 µM): 72%
viability, T/C (second compound 0.316 µM, first compound 0.03 µM): 62.8%
viability, T/C (second compound 0.316 µM, first compound 0.0949 µM): 60.8%
viability, T/C (second compound 0.316 µM, first compound 0.3 µM): 49.8%
viability, T/C (second compound 0.316 µM, first compound 0.949 µM): 48.6%
viability, T/C (second compound 0.316 µM, first compound 3 µM): 36.7%
viability, T/C (second compound 1 µM, first compound 0.00949 µM): 70.5%
viability, T/C (second compound 1 µM, first compound 0.03 µM): 66.9%
viability, T/C (second compound 1 µM, first compound 0.0949 µM): 58%
viability, T/C (second compound 1 µM, first compound 0.3 µM): 44.7%
viability, T/C (second compound 1 µM, first compound 0.949 µM): 57.1%
viability, T/C (second compound 1 µM, first compound 3 µM): 40.3%
viability, T/C (second compound 3.16 µM, first compound 0.00949 µM): 64.1%
viability, T/C (second compound 3.16 µM, first compound 0.03 µM): 63.6%
viability, T/C (second compound 3.16 µM, first compound 0.0949 µM): 56.2%
viability, T/C (second compound 3.16 µM, first compound 0.3 µM): 46.3%
viability, T/C (second compound 3.16 µM, first compound 0.949 µM): 44.5%
viability, T/C (second compound 3.16 µM, first compound 3 µM): 35.4%
viability, T/C (second compound 10 µM, first compound 0.00949 µM): 65.5%
viability, T/C (second compound 10 µM, first compound 0.03 µM): 59.7%
viability, T/C (second compound 10 µM, first compound 0.0949 µM): 52.5%
viability, T/C (second compound 10 µM, first compound 0.3 µM): 51%
viability, T/C (second compound 10 µM, first compound 0.949 µM): 45.4%
viability, T/C (second compound 10 µM, first compound 3 µM): 39%

IC50 (second compound 0.1 µM): 0.788 µM
IC50 (second compound 0.316 µM): 1.5 µM
IC50 (second compound 1 µM): 1.91 µM
IC50 (second compound 3.16 µM): 10 µM
IC50 (second compound 10 µM): 1.17 µM
SMILES: NS(=O)(=O)OCC1CC(n2ccc3c(NC4CCc5ccccc54)ncnc32)CC1O (stereo not given) + CC(CO)NC(=O)c1cc(-c2ccc(Cl)cc2)nn(-c2cnn(C)c2)c1=O
viability, T/C [1]: 96.4%
viability, T/C [2]: 90.6%
viability, T/C [3]: 87.1%
viability, T/C [4]: 40.6%
viability, T/C [5]: 21%
viability, T/C [6]: 27.2%
viability, T/C [7]: 55%
viability, T/C [8]: 94%
viability, T/C [9]: 63.4%
viability, T/C [10]: 61.5%
viability, T/C [11]: 28.2%
viability, T/C [12]: 29.2%
viability, T/C [13]: 64.6%
viability, T/C [14]: 55.6%
viability, T/C [15]: 109%
viability, T/C [16]: 67.6%
viability, T/C [17]: 30.7%
viability, T/C [18]: 42%
viability, T/C [19]: 75.8%
viability, T/C [20]: 108%
viability, T/C [21]: 55.6%
viability, T/C [22]: 65.9%
viability, T/C [23]: 27%
viability, T/C [24]: 72.7%
viability, T/C [25]: 72.3%
viability, T/C [26]: 109%
viability, T/C [27]: 80.1%
viability, T/C [28]: 51.1%
viability, T/C [29]: 32.4%
viability, T/C [30]: 16.4%
